Assay results taken from PMC4234439 (Journal of Medicinal Chemistry, 2014).
Blank lines part the entries; values can stand above or below the molecule they belong to.

Tests used:
[1] = plasma exposure in Swiss mice; assay type: in vivo, Swiss outbred mice; conditions: oral 10 mg/kg, PEG400 suspension, comparison in words
[2] = plasma protein binding by ultracentrifugation; assay type: in vitro ADME; conditions: 37 °C
[3] = human liver microsomal stability; assay type: in vitro ADME; conditions: liver microsomes, intrinsic clearance (CLint)
[4] = system: P. falciparum strain TM90-C2B (chloroquine, mefloquine, pyrimethamine, and atovaquone resistant); assay: microbe, parasite or virus in culture; conditions: Plasmodium falciparum, TM90, read-out: EC50 (nM) TM90-C2B
P. berghei-GFP parasites = assay type: in vivo, Plasmodium berghei; conditions: for animals cured: Thompson test, 10 mg/kg, five mice per group

Compound: COc1cc2[nH]c(C)c(-c3ccc(N4CCN(C)CC4)nc3)c(=O)c2cc1Cl [Compound 24, 6-Chloro-7-methoxy-2-methyl-3-(6-(4-methylpiperazin-1-yl)pyridin-3-yl)quinolin-4(1H)-one]
EC50 [4]: ≥ 536 nM

Compound: COc1cc2[nH]c(C)c(-c3cc4ccccc4s3)c(=O)c2cc1Cl [Compound 30, 3-(Benzo[b]thiophen-2-yl)-6-chloro-7-methoxy-2-methylquinolin-4(1H)-one]
EC50 [4]: 24.8 to 138 nM

Compound: COc1cc2[nH]c(C)c(-c3ccc(Oc4ccc(OC(F)(F)F)cc4)cc3C)c(=O)c2cc1Cl [Compound 62, 6-Chloro-7-methoxy-2-methyl-3-(2-methyl-4-(4-(trifluoromethoxy)phenoxy)phenyl)-quinolin-4(1H)-one]
animals cured (P. berghei-GFP parasites): two out of five

Compound: COc1cc2[nH]c(C)c(-c3ccc(-c4ccc(OC(F)(F)F)cc4)nc3)c(=O)c2cc1Cl [Compound 67, 6-Chloro-7-methoxy-2-methyl-3-(6-(4-(trifluoromethoxy)phenyl)pyridin-3-yl)quinolin-4(1H)-one]
plasma exposure [1]: slightly lower exposure | animals cured (P. berghei-GFP parasites): cured all the mice

Compound: O=C1C(O)=C([C@H]2CC[C@H](c3ccc(Cl)cc3)CC2)C(=O)c2ccccc21 [atovaquone, reference compound]
survival (P. berghei-GFP parasites; days survived beyond untreated control, 50 mg/kg p.o. days 3–5 PE): 23 days

Next, values leading:

plasma exposure [1]: highest exposure | binding to plasma proteins [2]: > 99%
Compound: COc1cc2[nH]c(C)c(-c3ccc(Oc4ccc(OC(F)(F)F)cc4)cc3F)c(=O)c2cc1Cl [Compound 7]

microsomal CLint at 1 μM [3]: < 15 µL/min/mg
Compound: COc1cc2[nH]c(C)c(-c3cccnc3)c(=O)c2cc1Cl [Compound 20, 6-Chloro-7-methoxy-2-methyl-3-(pyridin-3-yl)quinolin-4(1H)-one]

microsomal CLint at 1 μM [3]: < 15 µL/min/mg
Compound: COc1cc2[nH]c(C)c(-c3ccncc3)c(=O)c2cc1Cl [Compound 21, 6-Chloro-7-methoxy-2-methyl-3-(pyridin-4-yl)quinolin-4(1H)-one]

microsomal CLint at 1 μM [3]: 19 µL/min/mg
Compound: COc1cc2[nH]c(C)c(-c3ccc(Oc4ccccc4)cc3)c(=O)c2cc1Cl [Compound 46, 6-Chloro-7-methoxy-2-methyl-3-(4-phenoxyphenyl)quinolin-4(1H)-one]

plasma exposure [1]: substantially lower
Compound: COc1cc2[nH]c(C)c(-c3ccc(C(F)(F)F)cc3)c(=O)c2cc1Cl [Compound 52, 6-Chloro-7-methoxy-2-methyl-3-(4-(trifluoromethyl)phenyl)quinolin-4(1H)-one]

plasma exposure [1]: slightly lower exposure
Compound: COc1cc2[nH]c(C)c(-c3ccc(-c4ccc(C(F)(F)F)cc4F)nc3)c(=O)c2cc1Cl [Compound 66, 6-Chloro-3-(6-(2-fluoro-4-(trifluoromethyl)phenyl)pyridin-3-yl)-7-methoxy-2-methylquinolin-4(1H)-one]
